Tests used:
Test in all cases: relative viability (nuclei count vs DMSO), 5 days (fraction); higher = more cells survive
[1] = compound: CCc1c2c(nc3ccc(OC(=O)N4CCC(N5CCCCC5)CC4)cc13)-c1cc3c(c(=O)n1C2)COC(=O)[C@]3(O)CC [Irinotecan] + CC(=O)Nc1cccc(-n2c(=O)n(C3CC3)c(=O)c3c(Nc4ccc(I)cc4F)n(C)c(=O)c(C)c32)c1 [Trametinib] (partner 0.02 µM)
How it was run: (§1)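 Lung cancer cell lines were seeded in 1536-well plates and dosed by pin tool the next day, with either a single drug or a fixed anchor-drug dose combined with five library-drug doses (not always all listed) spaced in √10 steps. Five days later, one step fixed the cells and stained their nuclei (final 0.05% Triton X-100, 1% formaldehyde, 1 ug/ml Hoechst), and nuclei were counted on 4× images. Relative viability is the nuclei count in treated wells divided by the count in vehicle wells, and each value is the median of duplicate plates.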

[2] = compound: CC[C@@H](C)CNCC(=O)N1CCC2=C([C@@H]1COC3=CC=CC(=C3)C)C=CS2 [RU-SKI 43] + O=C(c1cc(Cc2n[nH]c(=O)c3ccccc23)ccc1F)N1CCN(C(=O)C2CC2)CC1 [Olaparib] (partner 8 µM)
How it was run: as §1

[3] = compound: CCc1c2c(nc3ccc(OC(=O)N4CCC(N5CCCCC5)CC4)cc13)-c1cc3c(c(=O)n1C2)COC(=O)[C@]3(O)CC [Irinotecan] + CS(=O)(=O)CCNCc1ccc(-c2ccc3ncnc(Nc4ccc(OCc5cccc(F)c5)c(Cl)c4)c3c2)o1 [Lapatinib] (partner 2 µM)
How it was run: as §1

[4] = compound: CC[C@@H](C)CNCC(=O)N1CCC2=C([C@@H]1COC3=CC=CC(=C3)C)C=CS2 [RU-SKI 43] + Cc1nc(NC(=O)N2CCC[C@H]2C(N)=O)sc1-c1ccnc(C(C)(C)C(F)(F)F)c1 [Alpelisib] (partner 2 µM)
How it was run: as §1

Cell Line | relative viability ([1]; first compound 0.6325 µM) | relative viability ([1]; first compound 2 µM) | relative viability ([1]; first compound 6.325 µM) | relative viability ([1]; first compound 20 µM) | relative viability ([2]; first compound 0.1 µM) | relative viability ([2]; first compound 0.3162 µM) | relative viability ([2]; first compound 1 µM) | relative viability ([2]; first compound 3.162 µM) | relative viability ([2]; first compound 10 µM) | relative viability ([3]; first compound 0.6325 µM) | relative viability ([3]; first compound 2 µM) | relative viability ([3]; first compound 6.325 µM) | relative viability ([3]; first compound 20 µM) | relative viability ([4]; first compound 0.1 µM) | relative viability ([4]; first compound 0.3162 µM) | relative viability ([4]; first compound 1 µM) | relative viability ([4]; first compound 3.162 µM) | relative viability ([4]; first compound 10 µM)
HCC-366 | 0.266 | 0.184 | 0.0834 | 0.0768 | 0.307 | 0.464 | 0.314 | 0.424 | 0.31 | 0.418 | 0.126 | 0.0457 | 0.0686 | 0.439 | 0.53 | 0.438 | 0.572 | 0.355
HCC-827 | 0.512 | 0.383 | 0.202 | 0.203 | 0.614 | 0.733 | 0.659 | 0.72 | 0.669 | 0.178 | 0.222 | 0.133 | 0.16 | 0.92 | 1.06 | 1.03 | 1.01 | 0.965
HOP-62 | 0.311 | 0.23 | 0.23 | 0.228 | 0.322 | 0.235 | 0.223 | 0.511 | 0.436 | 0.471 | 0.258 | 0.143 | 0.217 | 0.978 | 0.934 | 1.26 | 1.09 | 1.01
IA-LM | – | – | – | – | 0.877 | 0.87 | 0.976 | 0.732 | 0.812 | 0.426 | 0.26 | 0.134 | 0.0941 | 1.02 | 0.795 | 0.902 | 0.91 | 0.694
LC-2-ad | 0.657 | 0.365 | 0.275 | 0.253 | 0.697 | 0.774 | 0.771 | 0.712 | 0.677 | 0.416 | 0.291 | 0.172 | 0.132 | 0.836 | 1.02 | 0.932 | 0.924 | 0.779
LCLC-97TM1 | 0.131 | 0.14 | 0.128 | 0.154 | 0.408 | 0.347 | 0.535 | 0.446 | 0.416 | 0.317 | 0.263 | 0.156 | 0.173 | 0.215 | – | 0.206 | 0.241 | 0.234
LCLC-103H | 0.655 | 0.603 | 0.463 | 0.479 | 0.748 | 0.865 | 0.882 | 0.829 | 0.816 | – | – | – | – | 0.941 | 1.06 | 1.05 | 1.14 | 0.91
LK-2 | 0.821 | 0.7 | 0.465 | 0.281 | 0.808 | 0.639 | 0.788 | 0.612 | 0.75 | 0.852 | 1.33 | 0.411 | 0.32 | 1.27 | 1.41 | 1.18 | – | 1.24
LOU-NH91 | 0.774 | 0.768 | 0.466 | 0.29 | 0.908 | 0.94 | 0.973 | 0.926 | 0.879 | 0.685 | 0.8 | 0.414 | 0.402 | 0.72 | 0.738 | 0.711 | 0.681 | 0.7
LU99A | 0.184 | 0.182 | 0.164 | 0.156 | 0.261 | 0.276 | 0.285 | 0.271 | 0.262 | 0.367 | 0.309 | 0.203 | 0.197 | 0.526 | 0.558 | 0.5 | 0.578 | 0.456
LXF-289 | 0.653 | 0.328 | 0.268 | 0.197 | 1.09 | 1.09 | 1.17 | 1.16 | 0.948 | 0.881 | 0.883 | 0.315 | 0.236 | 1.02 | 0.96 | 1.1 | 1.13 | 0.963
NCI-H23 | 0.35 | 0.289 | 0.187 | 0.191 | 0.28 | 0.263 | 0.292 | 0.326 | 0.279 | 0.653 | 0.466 | 0.277 | 0.271 | 0.648 | 0.796 | 0.81 | 0.697 | 0.628
NCI-H441 | 0.405 | 0.426 | 0.141 | 0.198 | 0.709 | 0.576 | 0.627 | 0.736 | 0.542 | – | – | – | – | 0.87 | 0.907 | 0.573 | 0.68 | 0.946
NCI-H522 | 0.67 | 0.599 | 0.517 | 0.476 | 0.661 | 0.641 | 0.596 | 0.707 | 0.601 | – | – | – | – | – | – | – | – | –
NCI-H1299 | – | – | – | – | 0.948 | 0.995 | 1.04 | 0.99 | 0.959 | 0.721 | 0.693 | 0.399 | 0.203 | 1.18 | 1.14 | 1.03 | 1.08 | 1.15
NCI-H1563 | – | – | – | – | – | – | – | – | – | 0.674 | 1.05 | 0.954 | 0.441 | 0.862 | 0.925 | 0.903 | 0.853 | 0.862
NCI-H1648 | 0.441 | 0.383 | 0.299 | 0.323 | 1.02 | 1.06 | 0.614 | 0.91 | 0.835 | – | – | – | – | – | – | – | – | –
NCI-H1650 | 0.484 | 0.526 | 0.45 | 0.125 | 0.654 | 1.03 | 0.823 | 0.919 | 0.709 | 0.386 | 0.51 | 0.401 | 0.152 | – | – | – | – | –
NCI-H1703 | – | – | – | – | 0.439 | 0.456 | 0.407 | 0.452 | 0.248 | 0.953 | 1.32 | 0.39 | 0.158 | 0.329 | 0.31 | 0.338 | 0.339 | 0.239
NCI-H2342 | 0.872 | 0.89 | 0.786 | 0.494 | 0.387 | – | 0.44 | 0.428 | 0.358 | – | – | – | – | – | – | – | – | –
SW 900 | – | 0.522 | 0.275 | 0.284 | 0.94 | 0.952 | 0.821 | 0.814 | 0.806 | – | – | – | – | – | – | – | – | –

From the supplement of paper PMC10307832
